Earlier results, collected in patent US20090022794A1, “Topiramate Tablet Formulation” (priority 2005, published 2009).
In brackets after ≈: the same amount, converted by molar mass.

How the values were obtained:
[1] = relative humidity as high as 90%

solubility in alkaline solutions, acetone, dimethylsulfoxide and ethanol (alkaline solutions, acetone, dimethylsulfoxide, ethanol) | solubility in water (water) [µg/mL] | moisture picked up [1] | Compound
soluble | 9800 (≈ 28.9 mM) |  | CC1(C)O[C@@H]2[C@@H](CO[C@@]3(COS(N)(=O)=O)OC(C)(C)O[C@@H]23)O1 [Topiramate, 2,3:4,5-Bis-O-(1-methylethylidene)-β-D-fructopyranose sulfamate]
 |  | less than 1% | OC[C@@H](O)[C@@H](O)[C@H](O)[C@H](O)CO [Mannitol]
